Measured values: US10730874B2 (Shire Human Genetic Therapies, Inc., priority 2018, dated 2020)

target: human activated kallikrein enzyme (plasma kallikrein) (Homo sapiens (Human), UniProt P03952); assay: Inhibition of human activated plasma kallikrein, fluorogenic peptide substrate assay, 500 pM enzyme format; format: biochemical; conditions: 500 pM activated kallikrein enzyme, 300 uM Pro-Phe-Arg-7-amido-4-methylcoumarin substrate, 30 min preincubation, 10 min at RT; read-out: Primary Dose Response Assay: Average EC50
In short: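 Buffer 20 mM Tris pH 7.5, EDTA, NaCl, PEG-400, Triton X-100; 300 uM Pro-Phe-Arg-AMC; enzyme–inhibitor preincubation 30 min RT. Format one: 500 pM kallikrein, 10 min RT reaction; format two: 5 pM kallikrein, 18 h RT reaction. Fluorescence read at 460 nm (380 nm excitation).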

Sequence of human activated kallikrein enzyme (plasma kallikrein) (P03952 391-638): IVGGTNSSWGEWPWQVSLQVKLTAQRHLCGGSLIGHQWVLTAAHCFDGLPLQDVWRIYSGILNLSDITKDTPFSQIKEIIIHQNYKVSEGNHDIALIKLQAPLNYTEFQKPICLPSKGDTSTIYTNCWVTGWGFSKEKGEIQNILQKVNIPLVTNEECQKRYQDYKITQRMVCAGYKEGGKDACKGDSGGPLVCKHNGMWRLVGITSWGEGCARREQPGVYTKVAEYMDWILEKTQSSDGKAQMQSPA
Sequence of human activated kallikrein enzyme (plasma kallikrein) (P03952 20-390 partner): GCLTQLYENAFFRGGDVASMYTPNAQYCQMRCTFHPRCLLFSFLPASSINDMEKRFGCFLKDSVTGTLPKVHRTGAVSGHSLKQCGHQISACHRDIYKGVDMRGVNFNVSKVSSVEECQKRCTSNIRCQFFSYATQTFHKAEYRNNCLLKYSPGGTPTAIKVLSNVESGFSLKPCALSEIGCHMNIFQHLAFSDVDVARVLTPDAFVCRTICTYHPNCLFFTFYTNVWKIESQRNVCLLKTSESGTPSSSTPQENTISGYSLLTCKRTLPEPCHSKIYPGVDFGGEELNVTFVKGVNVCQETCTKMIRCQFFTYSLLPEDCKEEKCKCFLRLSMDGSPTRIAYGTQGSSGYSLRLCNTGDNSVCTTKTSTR

| SMILES | EC50 [nM] |
| --- | --- |
| O=C(NCc1ncn2ccc(Cl)c(F)c12)c1cn(Cc2cn3nccc(-n4cnnc4)c3n2)nn1 [Example I-294, 1-((8-(4H-1,2,4-triazol-4-yl)imidazo[1,2-b]pyridazin-2-yl)methyl)-N-((7-chloro-8-fluoroimidazo[1,5-a]pyridin-1-yl)methyl)-1H-1,2,3-triazole-4-carboxamide] | 10 to 100 |
| COC(=O)Cn1c(Cn2cc(C(=O)NCc3ncn4ccc(Cl)c(F)c34)nn2)cc2cc(C3CC3)ccc21 [Example I-246, methyl 2-(2-((4-(((7-chloro-8-fluoroimidazo[1,5-a]pyridin-1-yl)methyl)carbamoyl)-1H-1,2,3-triazol-1-yl)methyl)-5-cyclopropyl-1H-indol-1-yl)acetate] | < 1 |
| Cc1c(C2CC2)ccc2nc(Cn3cc(C(=O)NCc4ncn5ccc(Cl)cc45)cn3)cn12 [Example I-13, N-((7-chloroimidazo[1,5-a]pyridin-1-yl)methyl)-1-((6-cyclopropyl-5-methylimidazo[1,2-a]pyridin-2-yl)methyl)-1H-pyrazole-4-carboxamide] | < 1 |
| COC(=O)C(F)Cc1cc(C2CC2)cn2cc(Cn3cc(C(=O)NCc4ncn5ccc(Cl)c(F)c45)nn3)nc12 (centres unmarked) [Example I-224a, methyl 3-(2-((4-(((7-chloro-8-fluoroimidazo[1,5-a]pyridin-1-yl)methyl)carbamoyl)-1H-1,2,3-triazol-1-yl)methyl)-6-cyclopropylimidazo[1,2-a]pyridin-8-yl)-2-fluoropropanoate] | < 1 |
| NC(=O)c1cc(Cn2cc(C(=O)NCc3ncn4ccc(Cl)c(F)c34)nn2)cc2cc(C3CC3)cnc12 [Example I-275, 6-((4-(((7-chloro-8-fluoroimidazo[1,5-a]pyridin-1-yl)methyl)carbamoyl)-1H-1,2,3-triazol-1-yl)methyl)-3-cyclopropylquinoline-8-carboxamide] | 10 to 100 |
| CCc1ccn2cnc(CNC(=O)c3cnn(Cc4cn5cc(C6CC6)ccc5n4)c3)c2c1 [Example I-67, 1-((6-cyclopropylimidazo[1,2-a]pyridin-2-yl)methyl)-N-((7-ethylimidazo[1,5-a]pyridin-1-yl)methyl)-1H-pyrazole-4-carboxamide] | 10 to 100 |
| COC(=O)CCc1c(C(=O)NCc2ncn3ccc(Cl)cc23)cnn1Cc1cn2cc(C3CC3)ccc2n1 [Example I-82, methyl 3-(4-(((7-chloroimidazo[1,5-a]pyridin-1-yl)methyl)carbamoyl)-1-((6-cyclopropylimidazo[1,2-a]pyridin-2-yl)methyl)-1H-pyrazol-5-yl)propanoate] | 10 to 100 |
| O=C(NCc1ncn2ccc(Cl)c(F)c12)c1cn(Cc2cn3cc(C4CC4)cc(COCCO)c3n2)nn1 [Example I-301, N-((7-chloro-8-fluoroimidazo[1,5-a]pyridin-1-yl)methyl)-1-((6-cyclopropyl-8-((2-hydroxyethoxy)methyl)imidazo[1,2-a]pyridin-2-yl)methyl)-1H-1,2,3-triazole-4-carboxamide] | < 1 |
| O=C(NCc1ncn2ccc(Cl)cc12)c1cnn(Cc2cn3cccc(C4(CO)CC4)c3n2)c1 [Example I-117, N-((7-chloroimidazo[1,5-a]pyridin-1-yl)methyl)-1-((8-(1-(hydroxymethyl)cyclopropyl)imidazo[1,2-a]pyridin-2-yl)methyl)-1H-pyrazole-4-carboxamide] | < 1 |
| O=C(NCc1ncn2ccc(Cl)c(F)c12)c1cn(Cc2cn3cc(Cl)c(Cl)cc3n2)nn1 [Example I-188, N-((7-chloro-8-fluoroimidazo[1,5-a]pyridin-1-yl)methyl)-1-((6,7-dichloroimidazo[1,2-a]pyridin-2-yl)methyl)-1H-1,2,3-triazole-4-carboxamide] | 1 to 10 |
| O=C(NCc1ncn2ccc(Cl)c(F)c12)c1cn(Cc2cn3cc(C4CC4)cnc3n2)nn1 [Example I-165, N-((7-chloro-8-fluoroimidazo[1,5-a]pyridin-1-yl)methyl)-1-((6-cyclopropylimidazo[1,2-a]pyrimidin-2-yl)methyl)-1H-1,2,3-triazole-4-carboxamide] | < 1 |
| O=C(NCc1nc(C(F)F)n2ccc(Br)cc12)c1cnn(Cc2cn3cc(C4CC4)ccc3n2)c1 [Example I-83, N-((7-bromo-3-(difluoromethyl)imidazo[1,5-a]pyridin-1-yl)methyl)-1-((6-cyclopropylimidazo[1,2-a]pyridin-2-yl)methyl)-1H-pyrazole-4-carboxamide] | 10 to 100 |

Second part, the molecule after the results:

| EC50 [nM] | SMILES |
| --- | --- |
| < 1 | O=C(O)Cc1cc(C2CC2)cn2cc(Cn3cc(C(=O)NCc4ncn5ccc(Br)c(F)c45)cn3)nc12 [Example I-106, 2-(2-((4-(((7-bromo-8-fluoroimidazo[1,5-a]pyridin-1-yl)methyl)carbamoyl)-1H-pyrazol-1-yl)methyl)-6-cyclopropylimidazo[1,2-a]pyridin-8-yl)acetic acid] |
| < 1 | COC(=O)C1(Cc2cc(C3CC3)cn3cc(Cn4cc(C(=O)NCc5ncn6ccc(Cl)c(F)c56)nn4)nc23)CCCC1 [Example I-221a, methyl 1-((2-((4-(((7-chloro-8-fluoroimidazo[1,5-a]pyridin-1-yl)methyl)carbamoyl)-1H-1,2,3-triazol-1-yl)methyl)-6-cyclopropylimidazo[1,2-a]pyridin-8-yl)methyl)cyclopentane-1-carboxylate] |
| 10 to 100 | O=C(NCc1ncn2ccc(Cl)cc12)c1ccnc(Cc2ccc3ncc(Cl)cc3c2)c1 [Example I-3, N-((7-chloroimidazo[1,5-a]pyridin-1-yl)methyl)-2-((3-chloroquinolin-6-yl)methyl)isonicotinamide] |
| 10 to 100 | O=C(NCc1ncn2ccc(Cl)c(F)c12)c1cn(Cc2cn3ccccc3n2)cn1 [Example I-297, N-((7-chloro-8-fluoroimidazo[1,5-a]pyridin-1-yl)methyl)-1-(imidazo[1,2-a]pyridin-2-ylmethyl)-1H-imidazole-4-carboxamide] |
| < 1 | CC(c1cn2cc(C3CC3)ccc2n1)n1cc(C(=O)NCc2ncn3ccc(Cl)c(F)c23)nn1 (centres unmarked) [Example I-198, N-((7-chloro-8-fluoroimidazo[1,5-a]pyridin-1-yl)methyl)-1-(1-(6-cyclopropylimidazo[1,2-a]pyridin-2-yl)ethyl)-1H-1,2,3-triazole-4-carboxamide] |
| < 1 | O=C(NCc1ncn2ccc(Br)cc12)c1cnn(Cc2cn3cc(C4CC4)cnc3n2)c1 [Example I-76, N-((7-bromoimidazo[1,5-a]pyridin-1-yl)methyl)-1-((6-cyclopropylimidazo[1,2-a]pyrimidin-2-yl)methyl)-1H-pyrazole-4-carboxamide] |
| < 1 | COCc1nn(Cc2cn3cc(C4CC4)ccc3n2)cc1C(=O)NCc1ncn2ccc(Cl)cc12 [Example I-31, N-((7-chloroimidazo[1,5-a]pyridin-1-yl)methyl)-1-((6-cyclopropylimidazo[1,2-a]pyridin-2-yl)methyl)-3-(methoxymethyl)-1H-pyrazole-4-carboxamide] |
| 1 to 10 | O=C(NCc1ncn2ccc(Cl)cc12)c1cnn(Cc2nc3ccc(C4CC4)cn3n2)c1 [Example I-6, N-((7-chloroimidazo[1,5-a]pyridin-1-yl)methyl)-1-((6-cyclopropyl-[1,2,4]triazolo[1,5-a]pyridin-2-yl)methyl)-1H-pyrazole-4-carboxamide] |
| 10 to 100 | O=C(NCc1ncn2ccc(Cl)c(F)c12)c1cn(Cc2nc3cc(C4CC4)ccc3[nH]2)nn1 [Example I-236, N-((7-chloro-8-fluoroimidazo[1,5-a]pyridin-1-yl)methyl)-1-((5-cyclopropyl-1H-benzo[d]imidazol-2-yl)methyl)-1H-1,2,3-triazole-4-carboxamide] |
| 10 to 100 | COc1cccc2nc(Cn3cc(C(=O)NCc4ncn5ccc(Cl)cc45)cn3)cn12 [Example I-63, N-((7-chloroimidazo[1,5-a]pyridin-1-yl)methyl)-1-((5-methoxyimidazo[1,2-a]pyridin-2-yl)methyl)-1H-pyrazole-4-carboxamide] |
| < 1 | O=C(NCc1ncn2ccc(Cl)c(F)c12)c1cn(Cc2cn3nc(C4CC4)ccc3n2)nn1 [Example I-150, N-((7-chloro-8-fluoroimidazo[1,5-a]pyridin-1-yl)methyl)-1-((6-cyclopropylimidazo[1,2-b]pyridazin-2-yl)methyl)-1H-1,2,3-triazole-4-carboxamide] |
| 10 to 100 | CCc1cccc2nc(Cn3cc(C(=O)NCc4ncn5ccc(Cl)cc45)cn3)cn12 [Example I-46, N-((7-chloroimidazo[1,5-a]pyridin-1-yl)methyl)-1-((5-ethylimidazo[1,2-a]pyridin-2-yl)methyl)-1H-pyrazole-4-carboxamide] |
| 10 to 100 | CNc1cccc2nc(Cn3cc(C(=O)NCc4ncn5ccc(Cl)cc45)cn3)cn12 [Example I-77, N-((7-chloroimidazo[1,5-a]pyridin-1-yl)methyl)-1-((5-(methylamino)imidazo[1,2-a]pyridin-2-yl)methyl)-1H-pyrazole-4-carboxamide] |
| < 1 | O=C(O)COc1cc(C2CC2)cn2cc(Cn3cc(C(=O)NCc4ncn5ccc(Cl)c(F)c45)nn3)nc12 [Example I-208, 2-((2-((4-(((7-chloro-8-fluoroimidazo[1,5-a]pyridin-1-yl)methyl)carbamoyl)-1H-1,2,3-triazol-1-yl)methyl)-6-cyclopropylimidazo[1,2-a]pyridin-8-yl)oxy)acetic acid] |
| < 1 | CC1CC1c1ccc2nc(Cn3cc(C(=O)NCc4ncn5ccc(Br)cc45)cn3)cn2c1 (centres unmarked) [Example I-44, N-((7-bromoimidazo[1,5-a]pyridin-1-yl)methyl)-1-((6-(2-methylcyclopropyl)imidazo[1,2-a]pyridin-2-yl)methyl)-1H-pyrazole-4-carboxamide] |

same assay, conditions: comparative compounds (Table II); assay format with 500 pM (500 μM in the source) activated kallikrein; read-out: Primary Dose Response Assay: Average EC50

| EC50 [nM] | SMILES |
| --- | --- |
| 1 to 10 | COCc1nn(Cc2ccc(Cn3ccccc3=O)cc2)cc1C(=O)NCc1c(C#N)ccc(OC)c1F [reference compound] |
| 100 to 2000 | Cc1ccc2nc(Cn3cc(C(=O)NCc4cnc5ccc(Cl)cn45)cn3)cn2c1 [reference compound] |
